Data set [1] has as its system mouse primary DRG neurons. Description: Neurite outgrowth assay of DRG neurons (image-based HCS) against paclitaxel-induced neurotoxicity. Format: cell-based. To be noted: for activation at 1 µM: Mus musculus, DRG neuron. As to the method:
All these 19 compounds were then subjected to the neurite outgrowth assay of dorsal root ganglion (DRG) neurons paired with an image-based HCS to analyze whether they had neuroprotective potential. Quantification of neurite outgrowth under different regimens is shown in Figure 3, wherein DRG neurons incubated in 50 nM paclitaxel could cause 60% reduction in neurite outgrowth compared to the control (no drug treatment). […] Taken together, CN016 is selected as a promising lead for further development.
Primary cortical or DRG cells were fixed with 4% paraformaldehyde for 15 min following compound and paclitaxel treatment. After washing with PBS, the fixed cells were permeabilized with PBS containing 0.05% Triton X-100 for 20 min and then blocked with commercial blocking buffer (#GTX30963; GeneTex, USA) at room temperature for 1 h. Subsequently, the cortical cells were stained for the extending processes and synaptic puncta by using anti-MAP2 (#MBS502140, 1:500; Mybiosource, USA) and anti-synaptophysin (#ab32127, 1:500; Abcam, UK) overnight. DRG cells were stained for the neurite and neuron nucleus by using anti-β III tubulin (#D71G9, 1:600; Cell Signaling, USA) and anti-NeuN monoclonal antibody (#MAB377, 1:400; Millipore, USA) overnight. On the second day, the samples were washed for 30 min with wash buffer and incubated with secondary antibodies (Alexa-488, 647 1:600; Thermo Fisher, USA) and 4 μg/mL Hoechst 33258 (#94403-1ML, 1:100; Merck, USA) at room temperature for 1 h. In the initial experiments of screening the potential neuroprotective compound for CIPN, ImageXpress^Micro (IXM) high-content imaging system (Molecular Devices, USA) driven by MetaXpress software was used. Images of treated cells were automatically acquired by using a 10× objective. Twenty-one images per well were taken in each of three channels (DAPI, FITC, and Cy5) to create a whole view of the entire neural network. The integrity of the neural network was evaluated using TIF images by importing them into MetaXpress software for analysis using the module for multiparameter, such as Neurite Outgrowth, Cell Scoring, and Transfluor. Furthermore, the score of synaptogenesis was analyzed in AcuityXpress software (Molecular Devices, USA).

Data set [2] deals with sciatic nerve fibers. Description: Ultrastructure evaluation of the sciatic nerve (TEM). Format: in vivo, mouse. Conditions: paclitaxel 4.5 mg/kg x 4. From the text: Sciatic nerves were isolated from mice after drug treatment and behavioral tests to examine the ultrastructure of nerve fibers. […] To evaluate the integrity of myelin, we calculated the G-ratio (axon perimeter/myelin perimeter) in different treatment groups. Because the symptoms of PIPN mostly manifest with sensory impairment,[28] we roughly classified nerve fibers into larger fibers (diameter > 5 μm) and small fibers (diameter < 5 μm) depending on the type of sensory information conveyed.[29] Large fibers with greater than 5 μm diameter carry information related to proprioception, touch, and pressure. In contrast, small fibers with less than 5 μm diameter carry information related to temperature and pain.
Sciatic nerve samples from mice from each treatment group were isolated after the last time point of mouse behavioral tests. Fixation of sciatic nerves with 4% glutaraldehyde and post fixation with 1% osmium tetroxide solution at 4 °C were performed. […] Transmission electron microscopy (H7650, Hitachi) was used to observe the ultrastructure in the cross section of the sciatic nerves.

Data set [3] relates to primary cortical neurons. The experiment in a line: Synaptogenesis assay of primary cortical neurons (image-based HCS) against paclitaxel-induced neurotoxicity. Conditions: Mus musculus, Primary cortical neuron; test compound 1000 nM + paclitaxel 1 μM; mean ± SE; read-out: B: Synaptogenesis (% of control) of test compound (1000 nM) + paclitaxel (1 μM). Type of data set: cell-based, mouse. In outline: (§1)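 Cortical neurons from P0 C57BL/6J mouse pups pretreated with compound at 10 and 1000 nM before 1 μM paclitaxel. Cells fixed and immunostained for MAP2 (processes), synaptophysin (synaptic puncta) and Hoechst, then imaged by automated high-content microscopy at 10×. Neurite outgrowth and synaptogenesis scored from multiparameter image analysis.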

Data set [4] has as its system primary cortical neurons. The experiment in a line: Neurite outgrowth assay of primary cortical neurons (image-based HCS) against paclitaxel-induced neurotoxicity. Type of data set: cell-based, mouse. To be noted: Mus musculus, Primary cortical neuron; test compound 1000 nM + paclitaxel 1 μM; mean ± SE; read-out: D: Neurite outgrowth (% of control) of test compound (1000 nM) + paclitaxel (1 μM). In outline: as §1

The test system of data set [5] is mice. Also on record: method as in PMID 28349969. Conditions: cited from earlier work.
Data set [6] relates to paclitaxel-induced neuropathy in mice. Details: method as in PMID 28349969. Conditions: up to 25 mg/kg; cited from earlier work.
Setting [7] is: Table 1, A: neurite outgrowth (% of control) of test compound 1000 nM + paclitaxel 50 nM, B: paclitaxel 50 nM alone, DRG neurons, read-out: Neuroprotection rate = (A-B)±S.E.M [%].
The mark [8] stands for this setting: supplementary CSV, test compound 1000 nM, read-out: A-B (A: neurite outgrowth (% of control) of test compound (1000 nM) + paclitaxel (50 nM), B: of paclitaxel (50 nM)).
Setting [9] is: Table S2, test compound 1000 nM + paclitaxel 50 nM minus paclitaxel 50 nM, read-out: Neuroprotection rate = (A-B) ± S.E.M [%].

We go through 11 molecules from PMC8958505, “Discovery of Potential Neuroprotective Agents against Paclitaxel-Induced Peripheral Neuropathy” (Journal of Medicinal Chemistry, 2022).

Structures can show the parent of a compound that is named as a salt. Where two headings read alike, the source gives them in different places.

Consider `CC(=O)O[C@H]1C(=O)[C@@]2(C)[C@H]([C@H](OC(=O)c3ccccc3)[C@]3(O)C[C@H](OC(=O)[C@H](O)[C@@H](NC(=O)c4ccccc4)c4ccccc4)C(C)=C1C3(C)C)[C@]1(OC(C)=O)CO[C@@H]1C[C@@H]2O` [paclitaxel, Paclitaxel], for which the “reduction in neurite outgrowth compared to the control” value in data set [1] (50 nM paclitaxel, DRG neurons) is 60%. In data set [2], the “fiber loss (myelinated fiber density)” value turned out to be 25%.
On to `Nc1cc(N2CCCCC2)nc(N)[n+]1[O-]` [Minoxidil, reference compound], for which the activity at 1 µM in data set [3] was determined as 58 ± 8%. Moreover, in data set [4], the activity at 1 µM was determined as 66 ± 3%. In addition, the activation at 1 µM in data set [1] (setting [7]) stood at 15 ± 1.41%. For the same molecule, in data set [5], the dose causing hypotension is 50 mg/kg and the dose causing tachycardia is listed as 25 mg/kg. The “protective effect on paclitaxel-induced neuropathy in behavior tests” value in data set [6] is on record as “no protective effect”.
In the case of `CC(C)(O)CCn1cc(CNc2nc(NC3CCN(CCP(=O)(O)O)CC3)cc(N3CCOCC3)n2)nn1` [CN027, {2-[4-(2-{[1-(3-Hydroxy-3-methyl-butyl)-1H-[1,2,3]triazol-4-ylmethyl]-amino}-6-morpholin-4-yl-pyrimidin-4-ylamino)-piperidin-1-yl]-ethyl}-phosphonic Acid Hydrobromide Salt], the activation at 1 µM turned out to be 5 ± 0.93% in data set [1] (setting [7]) and 5% in data set [1] (setting [8]).
On to `COCCCn1cc(CNc2nc(NC3CCN(CCP(=O)(O)O)CC3)cc(N3CCOCC3)n2)nn1` [CN028, {2-[4-(2-{[1-(3-Methoxy-propyl)-1H-[1,2,3]triazol-4-ylmethyl]-amino}-6-morpholin-4-yl-pyrimidin-4-ylamino)-piperidin-1-yl]-ethyl}-phosphonic Acid Hydrobromide Salt], for which the activation at 1 µM in data set [1] (setting [7]) and in data set [1] (setting [8]) was -2% throughout.
Consider `O=C(O)Cn1cc(CNc2nc(NC3CCN(Cc4ccccc4)CC3)cc(N3CCOCC3)n2)nn1` [CN001, (4-{[4-(1-Benzyl-piperidin-4-ylamino)-6-morpholin-4-yl-pyrimidin-2-ylamino]-methyl}-[1,2,3]triazol-1-yl)-acetic Acid Hydrochloride Salt], for which the activation at 1 µM in data set [1] (setting [9]) is -6 ± 0.3%; in data set [1] (setting [8]), -6%.
`COC(=O)CCN1CCC(Nc2cc(N3CCOCC3)nc(NCc3cn(CCCO)nn3)n2)CC1` [CN009, 3-[4-(2-{[1-(3-Hydroxy-propyl)-1H-[1,2,3]triazol-4-ylmethyl]-amino}-6-morpholin-4-yl-pyrimidin-4-ylamino)-piperidin-1-yl]-propionic Acid Methyl Ester]: the activation at 1 µM came to 15 ± 1.28% in data set [1] (setting [9]) and 15% in data set [1] (setting [8]). The “protective efficacy against paclitaxel-induced neurotoxicity (in words)” value in data set [1] (pretreated, + 50 nM paclitaxel, DRG neurons) was “exhibited protective efficacy”.
As to `CCOP(=O)(CCN1CCC(Nc2cc(N3CCOCC3)nc(NCc3cn(CCC(C)(C)O)nn3)n2)CC1)OCC` [CN013, {2-[4-(2-{[1-(3-Hydroxy-3-methyl-butyl)-1H-[1,2,3]triazol-4-ylmethyl]-amino}-6-morpholin-4-yl-pyrimidin-4-ylamino)-piperidin-1-yl]-ethyl}-phosphonic Acid Diethyl Ester], the figures for the activation at 1 µM in data set [1] (setting [9]) and in data set [1] (setting [8]) were 6 ± 1.17% and 6%, respectively.
As to `O=P(O)(O)CCN1CCC(Nc2cc(N3CCS(=O)(=O)CC3)nc(NCc3cn(CCCO)nn3)n2)CC1` [CN024, {2-[4-(6-(1,1-Dioxo-1l6-thiomorpholin-4-yl)-2-{[1-(3-hydroxy-propyl)-1H-[1,2,3]triazol-4-ylmethyl]-amino}-pyrimidin-4-ylamino)-piperidin-1-yl]-ethyl}-phosphonic Acid Hydrobromide Salt], the activation at 1 µM in data set [1] (setting [7]) was 7 ± 0.84%; in data set [1] (setting [8]), 7%.
For `COC(=O)CCOCCCn1cc(CNc2nc(NC3CCN(Cc4ccccc4)CC3)cc(N3CCOCC3)n2)nn1` [CN002, 3-[3-(4-{[4-(1-Benzyl-piperidin-4-ylamino)-6-morpholin-4-yl-pyrimidin-2-ylamino]-methyl}-[1,2,3]triazol-1-yl)-propoxy]-propionic Acid Methyl Ester], the activation at 1 µM in data set [1] (setting [9]) is -4 ± 0.81%; in data set [1] (setting [8]) it was -4%.
With `O=C(CCNC(=O)C1(O)CC(O)C(O)C(O)C1)N1CCC(Nc2cc(N3CCOCC3)nc(NCc3cn(CCCNCCO)nn3)n2)CC1` (stereo not drawn) [CN007, 1,3,4,5-Tetrahydroxy-cyclohexanecarboxylic Acid (3-{4-[2-({1-[3-(2-Hydroxy-ethylamino)-propyl]-1H-[1,2,3]triazol-4-ylmethyl}-amino)-6-morpholin-4-yl-pyrimidin-4-ylamino]-piperidin-1-yl}-3-oxo-propyl)-amide Hydrochloride Salt], the activation at 1 µM in data set [1] (setting [9]) was 7 ± 1.05%; in data set [1] (setting [8]), 7%.
Take `CSCCCn1cc(CNc2nc(NC3CCN(Cc4ccccc4)CC3)cc(N3CCOCC3)n2)nn1` [CN003, N4-(1-Benzyl-piperidin-4-yl)-N2-[1-(3-methylsulfanyl-propyl)-1H-[1,2,3]triazol-4-ylmethyl]-6-morpholin-4-yl-pyrimidine-2,4-diamine]: the activation at 1 µM in data set [1] (setting [9]) turned out to be 1 ± 2.6%; in data set [1] (setting [8]) it was 1%.
